The record followed here is patent US12441718B2, “Selective angiotensin II compounds” (VICORE PHARMA AB, priority 2021, dated 2025).

Read-outs that look alike come from different tables or passages of the source. Some results are limits rather than exact numbers.

A short description of data set [1]: Metabolic stability in pooled human liver microsomes. In kind it is in vitro ADME. Particulars: human, pooled human liver microsomes, pooled human liver microsomes 0.5 mg/mL, 1 μM test compound, 37° C., * rows = mean of two runs. The gist of the method:
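Pooled human liver microsomes (0.5 mg/mL in PBS) preincubated ±1 mM NADPH at 37° C; test compound added at 10 min to 1 μM final. Samples at 0, 5, 15 and 60 min quenched in acetonitrile, parent quantified by LC-MS/MS against a standard curve (terfenadine internal standard). Initial metabolic rate calculated with and without NADPH.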

Data set [2] has as its target T1, human recombinant AT2 receptor (Homo sapiens, UniProt P50052).
T1 construct: purchased Eurofins ITEM26 (protocol number)
T1 sequence (P50052 1-363): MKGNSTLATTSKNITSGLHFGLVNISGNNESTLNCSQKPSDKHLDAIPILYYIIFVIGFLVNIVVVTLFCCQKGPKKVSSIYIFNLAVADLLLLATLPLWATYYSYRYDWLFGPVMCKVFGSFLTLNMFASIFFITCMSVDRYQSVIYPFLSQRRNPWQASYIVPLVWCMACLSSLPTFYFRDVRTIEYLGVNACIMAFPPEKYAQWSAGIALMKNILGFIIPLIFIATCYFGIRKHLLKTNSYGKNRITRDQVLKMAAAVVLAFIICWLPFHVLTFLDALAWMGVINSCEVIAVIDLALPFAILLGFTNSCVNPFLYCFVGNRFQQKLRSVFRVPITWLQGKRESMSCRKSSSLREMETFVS
Put plainly: Binding to AT2 receptor, radiometric scintillation assay (Eurofins ITEM26). The following applies: ligand 125I CGP 42112A, * rows = mean of runs; for Ki: seven-point dose-response curve; for IC50: test compounds at 1, 10, 100 and 1000 nM, read-out: AT2 GraFit IC50.

A further data set has as its target T2, CYP1A2 (Homo sapiens, UniProt P05177).
T2 construct: isoform-specific substrates incubated with human liver microsomes; tissue Eurofins ITEMG232 (protocol number); host or cells: human liver microsomes
Put plainly: in vitro. In kind it is in vitro ADME. The following applies: human, microsomes, human liver microsomes, substrate phenacetin, read-out: CYP1A2 Inh %.

A further data set concerns the target T3, CYP2B6 (Homo sapiens, UniProt P20813).
T3 construct: isoform-specific substrates incubated with human liver microsomes; tissue Eurofins ITEMG232 (protocol number); host or cells: human liver microsomes
T3 sequence (P20813 1-491): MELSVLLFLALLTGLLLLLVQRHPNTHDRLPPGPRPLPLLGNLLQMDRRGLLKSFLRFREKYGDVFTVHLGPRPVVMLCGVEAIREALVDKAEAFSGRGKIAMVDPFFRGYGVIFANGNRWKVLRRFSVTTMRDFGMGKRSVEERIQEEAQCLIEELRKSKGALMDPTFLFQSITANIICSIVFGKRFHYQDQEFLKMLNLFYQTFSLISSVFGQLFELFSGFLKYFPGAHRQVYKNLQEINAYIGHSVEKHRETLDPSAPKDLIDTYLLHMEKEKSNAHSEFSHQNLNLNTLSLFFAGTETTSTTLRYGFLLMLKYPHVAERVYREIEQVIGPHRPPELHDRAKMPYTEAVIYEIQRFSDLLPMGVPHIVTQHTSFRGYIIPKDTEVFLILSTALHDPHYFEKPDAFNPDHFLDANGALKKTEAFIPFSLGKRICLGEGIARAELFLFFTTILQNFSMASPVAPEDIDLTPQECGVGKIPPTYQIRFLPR
Put plainly: CYP inhibition in human liver microsomes (Eurofins ITEMG232). Format: in vitro ADME. The following applies: probe bupropion, substrate bupropion, read-out: CYP2B6 Inh %.

Another data set concerns the target T4, CYP2C19 (Homo sapiens, UniProt P33261).
T4 construct: isoform-specific substrates incubated with human liver microsomes; tissue Eurofins ITEMG232 (protocol number); host or cells: human liver microsomes
The data set is described as above. In kind it is in vitro ADME. Particulars: human, probe omeprazole, substrate omeprazole, read-out: CYP2C19 Inh %.

For the next data set, the target named is T5, CYP2C8 (Homo sapiens, UniProt P10632).
T5 construct: isoform-specific substrates incubated with human liver microsomes; tissue Eurofins ITEMG232 (protocol number); host or cells: human liver microsomes
T5 sequence (P10632 1-490): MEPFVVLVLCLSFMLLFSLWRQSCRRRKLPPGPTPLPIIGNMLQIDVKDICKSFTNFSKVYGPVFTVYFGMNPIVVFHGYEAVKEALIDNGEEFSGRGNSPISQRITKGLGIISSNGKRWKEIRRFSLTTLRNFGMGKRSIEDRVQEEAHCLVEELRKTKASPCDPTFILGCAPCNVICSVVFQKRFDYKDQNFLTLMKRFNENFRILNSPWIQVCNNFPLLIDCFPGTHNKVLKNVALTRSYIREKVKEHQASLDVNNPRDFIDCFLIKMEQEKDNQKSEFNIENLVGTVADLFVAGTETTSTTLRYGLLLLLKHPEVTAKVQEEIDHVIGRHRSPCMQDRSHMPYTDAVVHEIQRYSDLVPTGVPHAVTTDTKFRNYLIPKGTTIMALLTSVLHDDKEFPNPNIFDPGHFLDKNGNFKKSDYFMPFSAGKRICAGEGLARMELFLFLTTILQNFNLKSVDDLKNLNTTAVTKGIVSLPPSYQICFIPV
Described as above. In kind it is in vitro ADME. Particulars: human, probe paclitaxel and amodiaquine, substrate paclitaxel and amodiaquine, read-out: CYP2C8 Inh %.

The target of the next data set is T6, CYP2D6 (Homo sapiens, UniProt P10635).
T6 construct: isoform-specific substrates incubated with human liver microsomes; tissue Eurofins ITEMG232 (protocol number); host or cells: human liver microsomes
T6 sequence (P10635 whole entry, canonical isoform): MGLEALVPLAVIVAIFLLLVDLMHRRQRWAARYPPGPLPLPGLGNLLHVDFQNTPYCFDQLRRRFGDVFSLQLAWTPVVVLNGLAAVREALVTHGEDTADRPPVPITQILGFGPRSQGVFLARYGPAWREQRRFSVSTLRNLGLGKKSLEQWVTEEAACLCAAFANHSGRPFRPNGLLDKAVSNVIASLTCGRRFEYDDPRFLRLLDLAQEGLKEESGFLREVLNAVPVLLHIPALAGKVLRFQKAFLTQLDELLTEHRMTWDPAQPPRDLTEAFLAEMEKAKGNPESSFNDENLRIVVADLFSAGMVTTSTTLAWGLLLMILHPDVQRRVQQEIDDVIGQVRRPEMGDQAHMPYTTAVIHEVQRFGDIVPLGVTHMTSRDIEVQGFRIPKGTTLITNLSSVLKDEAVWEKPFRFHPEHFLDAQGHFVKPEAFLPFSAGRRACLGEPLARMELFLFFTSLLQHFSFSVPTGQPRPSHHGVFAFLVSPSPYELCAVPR
The data set is described as above. In kind it is in vitro ADME. Particulars: probe dextromethorphan, substrate dextromethorphan, read-out: CYP2D6 Inh %.

A further data set concerns CYP3A4&5. Nature of the data set: in vitro. The following applies: human, human liver microsomes, probe testosterone. Background: Microsomes from liver hold many membrane-bound enzymes, among them those of drug oxidation.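 Note: Read-out is the metabolite generated from the probe substrate, quantified as HPLC-MS/MS peak area once incubation ends.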
The target in another data set is CYP2C9 (Homo sapiens, UniProt P11712). Put plainly: CYP inhibition in human liver microsomes (Eurofins ITEMG232). In kind it is in vitro ADME. Set-up: isoform-specific substrates incubated with human liver microsomes; tissue Eurofins ITEMG232 (protocol number); host or cells: human liver microsomes. The following applies: human, probe diclofenac, substrate diclofenac, read-out: CYP2C9 Inh %.
Chain of CYP2C9 (P11712 whole entry, canonical isoform): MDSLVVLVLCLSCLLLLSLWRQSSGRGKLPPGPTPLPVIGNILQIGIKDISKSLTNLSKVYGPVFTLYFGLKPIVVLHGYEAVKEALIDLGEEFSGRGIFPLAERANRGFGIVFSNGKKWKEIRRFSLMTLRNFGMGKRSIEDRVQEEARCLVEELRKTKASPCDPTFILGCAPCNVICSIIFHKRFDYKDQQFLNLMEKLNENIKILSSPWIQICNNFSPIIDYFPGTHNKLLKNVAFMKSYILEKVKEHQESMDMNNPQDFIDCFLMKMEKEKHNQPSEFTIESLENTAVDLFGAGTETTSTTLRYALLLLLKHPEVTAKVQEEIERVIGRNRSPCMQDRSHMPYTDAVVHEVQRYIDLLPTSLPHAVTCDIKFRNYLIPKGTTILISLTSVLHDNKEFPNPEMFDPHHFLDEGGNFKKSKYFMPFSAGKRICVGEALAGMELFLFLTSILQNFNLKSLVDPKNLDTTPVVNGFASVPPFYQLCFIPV

A further data set has as its target CYP3A4 (Homo sapiens, UniProt P08684). Put plainly: CYP inhibition in human liver microsomes (Eurofins ITEMG232), midazolam substrate. Particulars: human, probe midazolam, read-out: CYP3A4 midazolam Inh %. In kind it is in vitro ADME. Details: isoform-specific substrates incubated with human liver microsomes; tissue Eurofins ITEMG232 (protocol number); host or cells: human liver microsomes.

[3] abbreviates: with 1 mM NADPH, read-out: T1/2, + NaDPH.
Setting [4] is: without NADPH, read-out: T1/2, no NaDPH.

Chain of CYP3A4 (P08684 whole entry, canonical isoform): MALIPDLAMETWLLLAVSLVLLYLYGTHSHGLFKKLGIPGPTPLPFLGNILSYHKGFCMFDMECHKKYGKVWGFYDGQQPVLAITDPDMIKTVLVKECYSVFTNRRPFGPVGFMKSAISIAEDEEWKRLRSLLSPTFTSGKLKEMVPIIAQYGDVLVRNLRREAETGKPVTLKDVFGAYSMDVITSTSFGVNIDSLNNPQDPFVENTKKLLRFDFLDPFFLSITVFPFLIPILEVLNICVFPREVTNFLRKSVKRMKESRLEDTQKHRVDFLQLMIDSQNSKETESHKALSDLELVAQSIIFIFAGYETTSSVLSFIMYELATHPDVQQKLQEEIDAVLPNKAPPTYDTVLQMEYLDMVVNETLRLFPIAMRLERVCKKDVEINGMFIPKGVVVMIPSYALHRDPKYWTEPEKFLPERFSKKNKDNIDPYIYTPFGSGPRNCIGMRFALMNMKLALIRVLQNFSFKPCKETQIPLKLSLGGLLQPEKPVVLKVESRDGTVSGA
T4 sequence (P33261 whole entry, canonical isoform): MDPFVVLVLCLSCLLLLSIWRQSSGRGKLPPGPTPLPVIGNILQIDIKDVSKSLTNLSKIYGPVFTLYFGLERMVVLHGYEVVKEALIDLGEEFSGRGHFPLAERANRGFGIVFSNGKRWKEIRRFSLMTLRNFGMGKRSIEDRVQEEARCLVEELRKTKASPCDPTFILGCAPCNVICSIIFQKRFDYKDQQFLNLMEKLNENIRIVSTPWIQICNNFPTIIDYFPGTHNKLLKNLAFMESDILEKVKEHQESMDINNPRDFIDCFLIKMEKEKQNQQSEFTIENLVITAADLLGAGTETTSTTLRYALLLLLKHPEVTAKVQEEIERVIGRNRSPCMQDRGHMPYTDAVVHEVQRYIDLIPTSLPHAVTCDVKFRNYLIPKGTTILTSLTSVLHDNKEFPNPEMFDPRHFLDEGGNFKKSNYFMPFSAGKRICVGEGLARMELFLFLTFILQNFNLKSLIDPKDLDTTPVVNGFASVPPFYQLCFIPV
T2 sequence (P05177 whole entry, canonical isoform): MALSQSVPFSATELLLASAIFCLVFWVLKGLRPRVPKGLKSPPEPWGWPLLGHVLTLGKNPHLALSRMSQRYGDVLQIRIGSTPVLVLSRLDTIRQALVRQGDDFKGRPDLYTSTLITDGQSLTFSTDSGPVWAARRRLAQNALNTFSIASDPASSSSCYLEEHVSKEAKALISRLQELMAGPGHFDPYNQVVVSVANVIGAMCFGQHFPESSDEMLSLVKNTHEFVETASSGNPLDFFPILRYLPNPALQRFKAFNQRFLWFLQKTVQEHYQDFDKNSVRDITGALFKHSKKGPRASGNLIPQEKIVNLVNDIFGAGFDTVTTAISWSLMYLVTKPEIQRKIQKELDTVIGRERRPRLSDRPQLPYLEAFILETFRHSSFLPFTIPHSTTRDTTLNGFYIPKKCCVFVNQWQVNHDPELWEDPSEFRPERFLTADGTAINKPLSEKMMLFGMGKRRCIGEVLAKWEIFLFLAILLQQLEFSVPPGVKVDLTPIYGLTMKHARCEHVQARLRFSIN
Description for CYP1A2: The following substrates were used; CYP1A phenacetin, CYP2B36 bupropion, CYP2C8 paclitaxel and amodiaquine, CYP2C9 diclofenac, CYP2C19 omeprazole, CYP2D6 dextromethorphan, CYP3A midazolam and testosterone.
At the end of the incubation, the formation of metabolite was monitored by HPLC-MS/MS as the peak area response.

The Ki is a measure of affinity in units of concentration, obtained from inhibition or displacement. What is called IC50 is the concentration needed to halve the response being measured. With `COc1ccc(NS(=O)(=O)c2ccc(CC(C)C)cc2-c2ccc(Cn3ccnc3C(C)(C)C)c(F)c2)nn1` [Example 23, 4′-((2-(tert-Butyl)-1H-imidazol-1-yl)methyl)-3′-fluoro-5-isobutyl-N-(6-methoxypyridazin-3-yl)-[1,1′-biphenyl]-2-sulfonamide], the half-life at 1 μM in data set [1] (setting [3]) was 0.233 h; in data set [1] (setting [4]), more than 1 h. Further, the Ki in [2] turned out to be 0.32 nM. In addition, the IC50 in data set [2] is 0.64 nM. Further, the inhibition at 10 µM at CYP1A2 came out at 6.6%; on CYP2B6, 5.7%; on CYP2C19 it was 63.5%; on CYP2C8, 24.6%; at CYP2D6, 4.5%; in the data set with CYP3A4&5, 39.7%. Also, the values for the inhibition at 10 µM on CYP2C9 and at CYP3A4 were 42.9% and 55.8%, respectively.
As to `CC(C)Cc1ccc(S(=O)(=O)Nc2ncc(C(F)(F)F)cn2)c(-c2ccc(Cn3ccnc3C(C)(C)C)c(F)c2)c1` [Example 21, 4′-((2-(tert-Butyl)-1H-imidazol-1-yl)methyl)-3′-fluoro-5-isobutyl-N-(5-(trifluoromethyl)pyrimidin-2-yl)-[1,1′-biphenyl]-2-sulfonamide], the half-life at 1 μM in data set [1] (setting [3]) and in data set [1] (setting [4]) was more than 1 h in each case. Besides, the Ki in data set [2] came out at 1.35 nM. In addition, in data set [2], the IC50 turned out to be 2.7 nM. The inhibition at 10 µM was -6.4% at CYP1A2; 37.9% at CYP2B6; 60.2% at CYP2C19; 59.1% on CYP2C8; 6.8% at CYP2D6; 26.4% in the data set with CYP3A4&5. Further, the inhibition at 10 µM at CYP2C9 was determined as 76.8%; at CYP3A4, 45.8%.
On to `Cc1nccn1Cc1ccc(-c2cc(CC(C)C)ccc2S(=O)(=O)Nc2ncccn2)cc1F` [Example 28, 3′-Fluoro-5-isobutyl-4′-((2-methyl-1H-imidazol-1-yl)methyl)-N-(pyrimidin-2-yl)-[1,1′-biphenyl]-2-sulfonamide], for which the half-life at 1 μM in data set [1] (setting [3]) and in data set [1] (setting [4]) was more than 1 h each time. In addition, the Ki in [2] was 0.4 nM. For the same molecule, the IC50 in data set [2] stood at 0.8 nM. Further, the inhibition at 10 µM worked out at 22.2% on CYP1A2; 40.8% at CYP2B6; 65% at CYP2C19; 41.6% on CYP2C8; 14.2% at CYP2D6; 37.4% in the data set on CYP3A4&5. The inhibition at 10 µM at CYP2C9 worked out at 31.1%; on CYP3A4, 34.8%.
As to `Cc1cnc(NS(=O)(=O)c2ccc(CC(C)C)cc2-c2ccc(Cn3ccnc3C(C)(C)C)c(F)c2)nc1` [Example 26, 4′-((2-(tert-Butyl)-1H-imidazol-1-yl)methyl)-3′-fluoro-5-isobutyl-N-(5-methylpyrimidin-2-yl)-[1,1′-biphenyl]-2-sulfonamide], the results for the half-life at 1 μM in data set [1] (setting [3]) and in [1] (setting [4]) were 0.733 h and more than 1 h, respectively. The Ki in data set [2] was found to be 1.68 nM. Moreover, the IC50 in [2] is 0.84 nM. The inhibition at 10 µM amounted to 10.3% on CYP1A2; 16.9% on CYP2B6; 46.5% at CYP2C19; 9.9% at CYP2C8; 44.1% at CYP2D6; 34.9% with CYP3A4&5. In addition, the inhibition at 10 µM on CYP2C9 came out at 66.4%; on CYP3A4, 48.7%.
Consider `CC(C)Cc1ccc(S(=O)(=O)Nc2ncccn2)c(-c2ccc(Cn3ccnc3C(C)C)c(F)c2)c1` [Example 27, 3′-Fluoro-5-isobutyl-4′-((2-isopropyl-1H-imidazol-1-yl)methyl)-N-(pyrimidin-2-yl)-[1,1′-biphenyl]-2-sulfonamide], for which the half-life at 1 μM in data set [1] (setting [3]) and in data set [1] (setting [4]) was more than 1 h each time. Moreover, the Ki in data set [2] amounted to 0.31 nM. Moreover, the IC50 in [2] was 0.61 nM. The inhibition at 10 µM worked out at 17.4% at CYP1A2; 15.7% at CYP2B6; 22.2% at CYP2C19; 21.3% at CYP2C8; 13.8% at CYP2D6; 25.9% in the data set on CYP3A4&5. Further, the figures for the inhibition at 10 µM at CYP2C9 and at CYP3A4 were 31.6% and 28.3%, respectively.
As to `CC(C)Cc1ccc(S(=O)(=O)Nc2ncc(Br)cn2)c(-c2ccc(Cn3ccnc3C(C)(C)C)cc2)c1` [Example 1, N-(5-Bromopyrimidin-2-yl)-4′-((2-(tert-butyl)-1H-imidazol-1-yl)methyl)-5-isobutyl-[1,1′-biphenyl]-2-sulfonamide], the half-life at 1 μM in data set [1] (setting [3]) and in data set [1] (setting [4]) was more than 1 h throughout. In addition, the Ki in data set [2] came to 2.12 nM. Besides, the IC50 in [2] stood at 4.2 nM. Further, the inhibition at 10 µM at CYP1A2 is 85.4%; on CYP2B6 it was 19.5%; on CYP2C19 it was 37.2%; at CYP2C8, 87.8%; on CYP2D6 it was 14.1%; in the data set with CYP3A4&5, 18.2%. Moreover, the figures for the inhibition at 10 µM at CYP2C9 and on CYP3A4 were 60.5% and 41.7%, respectively.
